From patent publication US8247460B2, “Method of treatment for muscular dystrophy” (priority 2006, dated 2012)
Where two headings read alike, the source gives them in different places.

Assays:
[1] = test system: alpha-SG-null C57BL/6 mouse; assay: Histology: number of inflammatory infiltrates in muscle sections; assay type: in vivo; conditions: alpha-SG-null mice, drugs daily in the diet, 30 days of treatment, n = 4
Description: FIG. 3: alpha-SG-null C57BL/6 mice were treated for 30 days with the indicated drugs, or combinations of drugs incorporated into the diet as described in the Methods. Tibialis anterior muscles were dissected and frozen in liquid nitrogen-cooled isopentane. The number of inflammatory infiltrates was measured on Azan-Mallory-stained serial muscle sections.
(§1) The alpha-SG-null C57BL/6 mouse, one of the most severe models of muscular dystrophy was used. In some experiments wild type (wt) C57BL/6 mouse were used as internal further control.
(§2) In the in vivo experiments the drugs were administered daily in the diet to three months old animals for 30 days. The dose of aspirin was 80 mg/kg, the dose of ISMN was 35 mg/kg and that of ISDN was 10 mg/kg, while the dose of ibuprofen was 15 mg/kg. Prednisolone was used as reference drug at the dose of 2 mg/kg. When combinations of drugs were used, the drugs were both incorporated in the same diet. Control animals received the same diet without any drug incorporation.
(§3) Diaphragm and tibialis anterior of untreated and drug-treated mice were isolated and included in Killik® frozen section medium, quickly frozen and cut into 8-μm thick sections with the muscle fibres oriented transversely using a cryostat. Sections were stained with either Hematoxylin&Eosin or Azan Mallory, to evaluate the number of inflammatory infiltrates and necrotic fibres ([…] sections per tissue), respectively.

[2] = test system: alpha-SG-null C57BL/6 mouse; assay: Histology: number of necrotic fibres in muscle sections; assay type: in vivo; conditions: alpha-SG-null mice, drugs daily in the diet, 30 days of treatment, n = 4
Description: FIG. 4: alpha-SG-null C57BL/6 mice were treated for 30 days with the indicated drugs, or combinations of drugs incorporated into the diet as described in the Methods. Diaphragm muscles were dissected, frozen in liquid nitrogen-cooled isopentane and stained with hematoxilin & eosin according to standard procedures.
as §1, §2, §3

[3] = test system: alpha-SG-null C57BL/6 mouse; assay type: in vivo
Description: FIG. 1: alpha-sarcoglycan (SG)-null C57BL/6 mice were treated for 30 days with the indicated drugs, or combinations of drugs incorporated into the diet as described in the Methods. Serum creatin kinase (CK) concentrations were measured from mouse blood samples obtained by tail vein withdrawal using the indirect colorimetric assay (Roche Diagnostics), following standard procedures.
as §1, §2
Quantitative determination of creatine kinase activity in serum of control and drug treated-animals was measured using creatine kinase reagent (Randox, CK110), according to the manufacturer's instructions. Blood was collected from tail vein and serum obtained after centrifugation at 13000 rpm for 10 minutes was stored at −80° C. before measurements.

[4] = test system: alpha-SG-null C57BL/6 mouse; assay: Free wheel running (voluntary running wheel activity); assay type: in vivo; conditions: alpha-SG-null mice, drugs daily in the diet, 30 days of treatment, n = 4
Description: FIG. 2: alpha-SG-null C57BL/6 mice were treated for 30 days with the indicated drugs, or combinations of drugs incorporated into the diet as described in the Methods. Locomotor performance was measured through the Running Wheel Activity, to this end mice were housed individually in cages equipped with a Trixie running wheel. Each wheel revolution was registered through a magnetic switch, which was connected to a counter. The number of revolutions was recorded daily for 6 days. […] The results of 9 experiments ±S.E.M of Running Wheel Activity measured in wild type (wt) C57BL/6 mice are also reported.
as §1, §2
Voluntary wheel running was used as the exercise paradigm to avoid any physiological changes that may occur due to the stress of forced treadmill running. Mice were housed individually in cages equipped with a Trixie running wheel. Each wheel revolution was registered through a magnetic switch, which was connected to a counter. The number of revolutions was recorded daily for 6 days.

[5] = test system: Satellite cells from alpha-SG-null C57BL/6 mice; assay: Fusion index of differentiating satellite cells; assay type: cell-based, mouse; conditions: for Fusion index: n = 4; for Fusion index compared to control cells, in words: satellite cells, 48 and 72 h
Description: FIG. 6: Satellite cells from alpha-SG-null C57BL/6 mice were isolated from 3-5 days old mice and induced to differentiate in the presence of the indicated drugs as described in the methods. Fusion index was determined at 48 and 72 h as the number of nuclei in sarcomeric myosin-expressing cells with more than 2 nuclei vs the total number of nuclei.
In the in vitro experiments, the drugs were applied to satellite cells at the concentration of 100 μM for ISMN, 50 μM for ISDN, 10 μM for ibuprofen, 50 μM for aspirin and 30 μM for prednisolone. When combinations of drugs were used, the drugs were administered at the same time.
Satellite cells were isolated from 3-5 days old mice as described previously with some modifications. In particular, after 3 days from isolation, proliferating myoblasts were harvested, counted, and plated on tissue culture plastic dishes coated with 1 mg/ml type I collagen (SIGMA, C9791). […] Preparations showing less than 90% myogenic cells were discarded. […] Growth medium contained IMDM medium supplemented with 20% Fetal Bovine Serum, 3% Chick Embryo Extract, 100 U/ml Penicillin, 100 μg/ml Streptomycin, 50 μg/ml Gentamycin. Differentiation medium contained IMDM medium supplemented with 2% Horse Serum, 100 U/ml Penicillin, 100 μg/ml Streptomycin. Fusion index was determined as the number of nuclei in sarcomeric myosin-expressing cells with more than 2 nuclei vs the total number of nuclei.
Satellite cells isolated from newborn alpha-SG-null C57BL/6 mice and plated at low density (6×10^3 cells/cm^2) were maintained for 48 h in growth medium, and then switched to the differentiating medium in the presence or absence of ISMN, ISDN, aspirin, ibuprofen, ISMN plus aspirin or ISDN plus ibuprofen.

[6] = test system: alpha-SG-null C57BL/6 mouse; assay: In vivo experiments: histological, functional and biochemical alterations overall; conditions: alpha-SG-null mice, 30 days in the diet, vs control
Description: as §1, §2
The effects of the different drugs and their combination on the number of inflammatory infiltrates, the number of necrotic fibers per section, creatine kinase activity and free wheel distance ran are shown in Table I.

[7] = serum, alpha-SG-null mice, drugs daily in the diet, 30 days of treatment, n = 4
[8] = 48 hours of treatment in differentiating medium
[9] = 72 hours of treatment in differentiating medium

Row | Compound | N° of inflammatory infiltrates/sections [1] | N° of necrotic fibres/section [2] | CK level [3, 7] [U/l] | Free wheel test [4] [km/24 h] | Fusion index [5, 8] [%] | Fusion index [5, 9] [%] | Effect on the parameters measured (histological, functional and biochemical alterations), in words [6] | Fusion index compared to control cells, in words [5] | CK level ([3]; mouse, in vivo) [U/l]
1 | CC(=O)Oc1ccccc1C(=O)O [Aspirin] | 122.2 ± 17.1° | 249.0 ± 32.1 | 841 ± 33 | 0.15 ± 0.02 | 20 ± 1.9 | 43 ± 1.7 | did not have significant effects | – | –
2 | O=[N+]([O-])O[C@H]1CO[C@H]2[C@@H]1OC[C@H]2O[N+](=O)[O-] [ISDN, isosorbide dinitrate] | – | – | – | – | – | – | did not have significant effects | effective on their own | –
3 | O=[N+]([O-])O[C@@H]1CO[C@H]2[C@@H]1OC[C@@H]2O [ISMN, isosorbide-mononitrate] | 190.2 ± 33.2 | 238.0 ± 27.2 | – | 0.18 ± 0.03 | 41 ± 2.2 | 76 ± 3.3 | did not have significant effects | effective on their own | 787 ± 33
4 | CC(C)Cc1ccc(C(C)C(=O)O)cc1 (stereo not drawn) [Ibuprofen] | 116.1 ± 11.1° | 269.0 ± 34.3 | 851 ± 41 | 0.12 ± 0.01 | 21 ± 1.2 | 42 ± 2.3 | did not have significant effects | – | –
5 | C[C@]12C=CC(=O)C=C1CC[C@@H]1[C@@H]2[C@@H](O)C[C@@]2(C)[C@H]1CC[C@]2(O)C(=O)CO [Prednisolone] | 103.4 ± 12.0 | 217.3 ± 37.3 | 757.6 ± 37.5 | 0.38 ± 0.1 | 18 ± 0.9 | 41 ± 2.0 | – | – | –
